What was measured:
[1] = Sample solution stability (short term), HPLC-MS/MS method validation; format: physicochemical; conditions: stored at room temperature
Procedure: Described herein are instantaneous dissolution methods comprising a step using a LC/MS/MS technique to measure the concentration of the active ingredient in the instantaneous dissolution solution. Specifically, the LC/MS/MS procedure includes: centrifuge samples from above instantaneous dissolution solution at 6000×g for 5 minutes (if sample appears cloudy) to obtain clear solution; take out supernatant or clear solution and load into HPLC auto samplers. If the concentration of the active ingredient is above the upper calibration range (100 ng/mL), the sample solution will go through further dilution, for instance, by pipetting 100 μL of the centrifuged sample solution into 4.9 mL of sample diluents; If dilution sample is still above the calibration range, a serial dilution can be made with the dilution solution containing Internal Standard. Final diluted sample concentration should fall into the calibration range.
A summary of the HPLC-MS/MS method validation results can be found in the table below: […]

[2] = Instantaneous dissolution of coated tablets in 5% human saliva solution, LC/MS/MS; format: physicochemical
Description: A typical procedure for preparing the instantaneous dissolution solutions of coated tablets is described as follows: a tablet comprising a core and a film coating—in this case a coated eszopiclone tablet—is randomly selected, and then placed into a basket sinker (e.g., Hanson Research Part # ENMISC, BSK008-JP 8 mesh, 0.76″ L×0.41″ W) with long handle (made from stainless steel tubing). The basket is then immersed in dissolution diluent (e.g., 5% human saliva solution) in vial 1 for 2-5 seconds, then moved to vial 2 for 2-5 seconds dipping and so on with the same tablet. The dissolution diluents (e.g., 5% human saliva solution in water) can be prepared by mixing thoroughly about 50 mL of normal human saliva and about 950 mL of water in a suitable container. About 5 mL of the 5% human saliva solution is then pipetted into several scintillation vials (approximately 20 mL volume). This procedure has been employed with tablets coated with about 2-4% coating by weight
Alternatively, the dipping experiment described above may be carried out by immersing the tablet in the basket in dissolution diluents (e.g., about 5% human saliva solution in water) in vial 1, moving the basket up and down for about 2-5 seconds at a speed of approximate 1 dip every two seconds; remove the basket from the diluent; take a sample of the diluent; re-immerse the tablet in the same vial. Continue the experiment similarly to collect samples until the tablet disintegrates or the preselected time course is completed, whichever comes first. In this embodiment, a new tablet is used in each vial. The experiment is repeated as described for additional nine or ten tablets (total of 10 tablets). The concentration of active ingredient, e.g., eszopiclone, in the sample solutions is then determined using LC/MS/MS (ESI mode, positive MRM scan type). The dissolution instantaneous profile of the tablets is constructed by plotting logarithmic concentration of eszopiclone versus time in seconds.
Another typical procedure for preparing the instantaneous dissolution solutions of coated tablets is described as follows: a number of tablets comprising a core and a film coating—in this case coated eszopiclone tablets—are transferred into basket sinkers and into a series of vials containing the dissolution diluents. The basket is then immersed in dissolution diluents (e.g., 5% human saliva solution in water) in vial 1 for 5 seconds, in vial 2 for 10 seconds, in vial 3 for 15 seconds dipping and so on with the series of tablets. The dissolution diluents (e.g., 5% human saliva solution in water) can be prepared by mixing thoroughly 50 mL of normal human saliva and 950 mL of water in a suitable container. About 5 mL of the 5% human saliva solution is then pipetted into several scintillation vials (approximately 20 mL volume). This procedure has been employed with tablets coated with 3-8% coating by weight.
In each scenario above, the concentration of core material, e.g., eszopiclone, the active ingredient in the sample solutions, is determined using LC/MS/MS (ESI mode, positive MRM scan type). The dissolution instantaneous profile of the tablets is constructed by plotting logarithmic concentration of eszopiclone versus time in seconds.
Described herein are instantaneous dissolution methods comprising a step using a LC/MS/MS technique to measure the concentration of the active ingredient in the instantaneous dissolution solution. Specifically, the LC/MS/MS procedure includes: centrifuge samples from above instantaneous dissolution solution at 6000×g for 5 minutes (if sample appears cloudy) to obtain clear solution; take out supernatant or clear solution and load into HPLC auto samplers. […]

In the case of `CN1CCN(C(=O)O[C@H]2c3nccnc3C(=O)N2c2ccc(Cl)cn2)CC1` [Eszopiclone, (S)-(6-(5-chloro-2-pyridyl)-5-[(4-methyl-1-piperazinyl)carbonyloxy]-7-oxo-6,7-dihydro-5H-pyrrolo[3,4-b]pyrazine)], the “Sample solution stability (short term)” value [1] is reported as “Sample solutions are stable for 8 hours”, the “Mean, % dissolved results” value ([2]; Time 5 seconds) is reported as 5.317% and the “Mean, % dissolved results” value ([2]; Time 10 seconds) is reported as 6.875%. For the same compound, the “Mean, % dissolved results” value ([2]; Time 15 seconds) was 7.461%, the “Mean, % dissolved results” value ([2]; Time 20 seconds) was 14.144% and the “Mean, % dissolved results” value ([2]; Time 25 seconds) was 12.222%. For the same compound, the “Mean, % dissolved results” value ([2]; Time 30 seconds) was 16.625%, the “Mean, % dissolved results” value ([2]; Time 35 seconds) was 22.404% and the “Mean, % dissolved results” value ([2]; Time 40 seconds) was 14.658%. The “Mean, % dissolved results” value ([2]; Time 45 seconds) was 14.989% and the “Mean, % dissolved results” value ([2]; Time 50 seconds) was 12.477%.

From patent US9114086B2, “Coated tablets of eszopiclone” (Sunovion Pharmaceuticals Inc., priority 2009, dated 2015)
